Our source for the Kd values is ChEMBL document CHEMBL3991601, “The target landscape of clinical kinase drugs” (Science, 2017).

The source made the active and inactive calls. Cut-off read from the data, not from the text of the source, for most assays here: actives have a measured Kd and inactives only a lower limit.

Test [1] has as its target Dual specificity protein kinase CLK2 (Homo sapiens, UniProt P49760).
In test [2] the target is Protein-tyrosine kinase 6 (Homo sapiens, UniProt Q13882).
The target in test [3] is TGF-beta receptor type-2 (Homo sapiens, UniProt P37173).
The target of test [4] is Myosin light chain kinase, smooth muscle (Homo sapiens, UniProt Q15746).
Test [5] concerns the target T1, Serine/threonine-protein kinase ICK (Homo sapiens, UniProt Q9UPZ9).
T1 sequence (Q9UPZ9 whole entry): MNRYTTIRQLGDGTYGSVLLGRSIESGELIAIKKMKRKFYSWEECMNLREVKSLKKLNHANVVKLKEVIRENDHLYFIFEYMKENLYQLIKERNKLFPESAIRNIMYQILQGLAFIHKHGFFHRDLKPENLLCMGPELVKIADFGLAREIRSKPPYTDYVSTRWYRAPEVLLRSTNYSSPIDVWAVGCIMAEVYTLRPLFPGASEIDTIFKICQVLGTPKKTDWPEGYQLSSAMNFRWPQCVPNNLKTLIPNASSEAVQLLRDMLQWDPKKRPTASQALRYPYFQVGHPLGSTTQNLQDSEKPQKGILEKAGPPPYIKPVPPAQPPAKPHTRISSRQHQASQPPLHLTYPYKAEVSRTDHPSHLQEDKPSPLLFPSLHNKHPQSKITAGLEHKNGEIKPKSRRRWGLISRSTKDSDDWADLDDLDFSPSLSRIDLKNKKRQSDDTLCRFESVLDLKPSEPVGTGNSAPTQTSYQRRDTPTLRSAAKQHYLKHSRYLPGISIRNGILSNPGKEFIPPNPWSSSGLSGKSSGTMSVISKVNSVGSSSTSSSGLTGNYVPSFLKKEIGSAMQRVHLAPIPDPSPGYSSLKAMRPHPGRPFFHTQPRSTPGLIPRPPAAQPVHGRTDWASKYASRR

Test [6] deals with T2, ADP/ATP translocase 3 (Homo sapiens, UniProt P12236).
T2 sequence (P12236 whole entry): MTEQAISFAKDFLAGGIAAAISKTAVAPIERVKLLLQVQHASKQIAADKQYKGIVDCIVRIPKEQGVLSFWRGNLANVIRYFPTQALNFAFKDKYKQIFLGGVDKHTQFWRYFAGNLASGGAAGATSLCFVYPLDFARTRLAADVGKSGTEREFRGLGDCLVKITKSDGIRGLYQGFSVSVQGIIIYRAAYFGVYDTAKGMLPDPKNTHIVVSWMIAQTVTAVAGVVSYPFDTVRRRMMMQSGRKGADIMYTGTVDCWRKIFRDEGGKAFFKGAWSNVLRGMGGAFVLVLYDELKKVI

For test [7], the target named is T3, Septin-9 (Homo sapiens, UniProt Q9UHD8).
T3 sequence (Q9UHD8 whole entry): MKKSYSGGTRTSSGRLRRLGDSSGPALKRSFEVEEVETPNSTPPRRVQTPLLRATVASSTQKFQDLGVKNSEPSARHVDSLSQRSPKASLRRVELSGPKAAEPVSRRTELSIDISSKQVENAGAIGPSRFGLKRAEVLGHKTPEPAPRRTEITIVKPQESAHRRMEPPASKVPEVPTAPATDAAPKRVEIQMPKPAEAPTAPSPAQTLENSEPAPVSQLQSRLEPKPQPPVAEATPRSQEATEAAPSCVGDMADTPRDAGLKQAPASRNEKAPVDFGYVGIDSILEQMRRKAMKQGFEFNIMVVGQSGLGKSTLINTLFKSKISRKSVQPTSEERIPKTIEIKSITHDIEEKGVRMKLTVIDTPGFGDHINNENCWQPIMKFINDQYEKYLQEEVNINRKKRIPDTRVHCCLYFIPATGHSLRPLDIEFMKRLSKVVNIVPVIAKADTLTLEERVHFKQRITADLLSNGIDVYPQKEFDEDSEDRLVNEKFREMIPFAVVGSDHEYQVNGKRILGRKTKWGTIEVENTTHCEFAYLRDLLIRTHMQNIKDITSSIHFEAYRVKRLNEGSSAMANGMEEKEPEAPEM

Test [8] has as its target NADH dehydrogenase [ubiquinone] 1 alpha subcomplex subunit 13 (Homo sapiens, UniProt Q9P0J0).
Test [9] has as its target STE20-like serine/threonine-protein kinase (Homo sapiens, UniProt Q9H2G2).
Test [10] has as its target T4, MAP/microtubule affinity-regulating kinase 4 (Homo sapiens, UniProt Q96L34).
T4 sequence (Q96L34 whole entry): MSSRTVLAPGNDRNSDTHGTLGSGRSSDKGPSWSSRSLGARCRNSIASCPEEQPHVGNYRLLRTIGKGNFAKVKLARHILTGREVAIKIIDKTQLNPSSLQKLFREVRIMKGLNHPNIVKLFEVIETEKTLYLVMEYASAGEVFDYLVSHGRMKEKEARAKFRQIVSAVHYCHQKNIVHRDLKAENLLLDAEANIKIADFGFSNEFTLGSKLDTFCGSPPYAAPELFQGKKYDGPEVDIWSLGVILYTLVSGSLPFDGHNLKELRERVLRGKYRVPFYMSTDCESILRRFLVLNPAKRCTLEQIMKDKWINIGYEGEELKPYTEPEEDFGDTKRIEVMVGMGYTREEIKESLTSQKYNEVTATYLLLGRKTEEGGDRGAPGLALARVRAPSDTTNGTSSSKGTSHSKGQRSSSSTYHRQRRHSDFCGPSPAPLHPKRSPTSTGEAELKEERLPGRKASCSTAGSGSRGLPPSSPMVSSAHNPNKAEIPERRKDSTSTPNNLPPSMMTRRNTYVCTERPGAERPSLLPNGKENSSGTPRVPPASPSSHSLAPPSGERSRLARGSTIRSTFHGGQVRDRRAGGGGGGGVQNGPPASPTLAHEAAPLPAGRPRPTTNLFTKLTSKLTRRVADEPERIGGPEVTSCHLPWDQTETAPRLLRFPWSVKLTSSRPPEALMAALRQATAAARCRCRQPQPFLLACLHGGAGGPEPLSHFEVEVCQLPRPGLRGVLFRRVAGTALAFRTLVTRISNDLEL
Note: in the data inactive means no Kd found up to 30 µM.

Chain of Myosin light chain kinase, smooth muscle (Q15746 whole entry): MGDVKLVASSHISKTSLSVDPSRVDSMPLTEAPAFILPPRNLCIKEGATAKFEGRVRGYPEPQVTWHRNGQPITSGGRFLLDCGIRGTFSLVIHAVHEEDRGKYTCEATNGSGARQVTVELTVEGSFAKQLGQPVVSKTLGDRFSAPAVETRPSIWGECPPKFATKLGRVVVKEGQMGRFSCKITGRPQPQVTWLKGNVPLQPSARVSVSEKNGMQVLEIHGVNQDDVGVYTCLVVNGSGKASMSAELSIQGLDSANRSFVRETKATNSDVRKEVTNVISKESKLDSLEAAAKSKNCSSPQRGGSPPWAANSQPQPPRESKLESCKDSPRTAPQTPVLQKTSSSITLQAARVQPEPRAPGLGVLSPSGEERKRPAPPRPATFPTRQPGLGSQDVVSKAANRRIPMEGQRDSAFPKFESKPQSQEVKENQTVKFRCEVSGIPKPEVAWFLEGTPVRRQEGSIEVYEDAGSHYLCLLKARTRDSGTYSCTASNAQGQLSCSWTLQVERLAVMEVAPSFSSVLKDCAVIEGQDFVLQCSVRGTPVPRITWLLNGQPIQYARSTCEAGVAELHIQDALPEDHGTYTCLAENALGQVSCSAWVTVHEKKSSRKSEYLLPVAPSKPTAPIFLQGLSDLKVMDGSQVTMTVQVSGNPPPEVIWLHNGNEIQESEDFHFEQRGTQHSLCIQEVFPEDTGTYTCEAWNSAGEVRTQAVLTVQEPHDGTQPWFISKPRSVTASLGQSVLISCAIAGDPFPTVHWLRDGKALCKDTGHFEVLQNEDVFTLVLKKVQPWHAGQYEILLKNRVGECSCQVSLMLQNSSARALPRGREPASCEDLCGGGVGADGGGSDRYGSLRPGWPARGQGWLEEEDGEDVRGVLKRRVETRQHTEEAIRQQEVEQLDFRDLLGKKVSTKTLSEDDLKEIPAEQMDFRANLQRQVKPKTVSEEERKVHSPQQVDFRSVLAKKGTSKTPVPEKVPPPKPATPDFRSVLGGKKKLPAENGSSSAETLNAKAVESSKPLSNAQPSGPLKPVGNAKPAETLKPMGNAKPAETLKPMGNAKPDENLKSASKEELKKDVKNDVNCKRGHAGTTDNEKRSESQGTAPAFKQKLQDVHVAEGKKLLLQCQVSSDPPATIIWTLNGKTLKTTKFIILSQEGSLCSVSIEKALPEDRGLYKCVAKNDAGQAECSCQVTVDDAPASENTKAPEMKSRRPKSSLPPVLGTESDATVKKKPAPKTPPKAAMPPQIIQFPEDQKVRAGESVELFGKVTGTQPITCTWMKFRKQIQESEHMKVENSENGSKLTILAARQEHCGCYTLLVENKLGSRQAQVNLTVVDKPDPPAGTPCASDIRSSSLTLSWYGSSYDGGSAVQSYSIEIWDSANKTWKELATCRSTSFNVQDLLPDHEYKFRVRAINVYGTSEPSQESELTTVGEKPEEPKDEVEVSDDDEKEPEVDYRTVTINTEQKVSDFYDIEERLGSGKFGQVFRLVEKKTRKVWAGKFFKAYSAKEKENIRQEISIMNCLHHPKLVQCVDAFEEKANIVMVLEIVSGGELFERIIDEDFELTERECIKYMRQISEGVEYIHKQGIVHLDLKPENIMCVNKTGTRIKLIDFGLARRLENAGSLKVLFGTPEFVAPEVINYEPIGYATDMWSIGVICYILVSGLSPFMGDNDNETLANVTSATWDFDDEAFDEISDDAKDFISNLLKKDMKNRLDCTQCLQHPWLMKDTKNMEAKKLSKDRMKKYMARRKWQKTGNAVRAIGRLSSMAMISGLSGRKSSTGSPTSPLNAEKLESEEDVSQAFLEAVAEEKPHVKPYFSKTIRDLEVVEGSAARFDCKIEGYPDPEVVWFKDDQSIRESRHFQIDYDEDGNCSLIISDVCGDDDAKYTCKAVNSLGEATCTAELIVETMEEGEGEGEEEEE
Chain of Protein-tyrosine kinase 6 (Q13882 whole entry): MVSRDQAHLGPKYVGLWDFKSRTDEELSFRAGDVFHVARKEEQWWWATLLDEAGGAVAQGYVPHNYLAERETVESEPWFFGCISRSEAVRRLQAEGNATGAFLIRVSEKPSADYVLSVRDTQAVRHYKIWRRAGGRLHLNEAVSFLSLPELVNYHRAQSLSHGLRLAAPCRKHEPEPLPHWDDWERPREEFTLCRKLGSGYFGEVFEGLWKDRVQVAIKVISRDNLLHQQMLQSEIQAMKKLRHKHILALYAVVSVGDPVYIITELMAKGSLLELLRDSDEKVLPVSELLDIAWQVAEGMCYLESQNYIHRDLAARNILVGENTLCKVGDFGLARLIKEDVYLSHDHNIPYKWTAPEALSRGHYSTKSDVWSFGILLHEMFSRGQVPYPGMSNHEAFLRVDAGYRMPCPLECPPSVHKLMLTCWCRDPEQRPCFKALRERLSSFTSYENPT
Chain of STE20-like serine/threonine-protein kinase (Q9H2G2 whole entry): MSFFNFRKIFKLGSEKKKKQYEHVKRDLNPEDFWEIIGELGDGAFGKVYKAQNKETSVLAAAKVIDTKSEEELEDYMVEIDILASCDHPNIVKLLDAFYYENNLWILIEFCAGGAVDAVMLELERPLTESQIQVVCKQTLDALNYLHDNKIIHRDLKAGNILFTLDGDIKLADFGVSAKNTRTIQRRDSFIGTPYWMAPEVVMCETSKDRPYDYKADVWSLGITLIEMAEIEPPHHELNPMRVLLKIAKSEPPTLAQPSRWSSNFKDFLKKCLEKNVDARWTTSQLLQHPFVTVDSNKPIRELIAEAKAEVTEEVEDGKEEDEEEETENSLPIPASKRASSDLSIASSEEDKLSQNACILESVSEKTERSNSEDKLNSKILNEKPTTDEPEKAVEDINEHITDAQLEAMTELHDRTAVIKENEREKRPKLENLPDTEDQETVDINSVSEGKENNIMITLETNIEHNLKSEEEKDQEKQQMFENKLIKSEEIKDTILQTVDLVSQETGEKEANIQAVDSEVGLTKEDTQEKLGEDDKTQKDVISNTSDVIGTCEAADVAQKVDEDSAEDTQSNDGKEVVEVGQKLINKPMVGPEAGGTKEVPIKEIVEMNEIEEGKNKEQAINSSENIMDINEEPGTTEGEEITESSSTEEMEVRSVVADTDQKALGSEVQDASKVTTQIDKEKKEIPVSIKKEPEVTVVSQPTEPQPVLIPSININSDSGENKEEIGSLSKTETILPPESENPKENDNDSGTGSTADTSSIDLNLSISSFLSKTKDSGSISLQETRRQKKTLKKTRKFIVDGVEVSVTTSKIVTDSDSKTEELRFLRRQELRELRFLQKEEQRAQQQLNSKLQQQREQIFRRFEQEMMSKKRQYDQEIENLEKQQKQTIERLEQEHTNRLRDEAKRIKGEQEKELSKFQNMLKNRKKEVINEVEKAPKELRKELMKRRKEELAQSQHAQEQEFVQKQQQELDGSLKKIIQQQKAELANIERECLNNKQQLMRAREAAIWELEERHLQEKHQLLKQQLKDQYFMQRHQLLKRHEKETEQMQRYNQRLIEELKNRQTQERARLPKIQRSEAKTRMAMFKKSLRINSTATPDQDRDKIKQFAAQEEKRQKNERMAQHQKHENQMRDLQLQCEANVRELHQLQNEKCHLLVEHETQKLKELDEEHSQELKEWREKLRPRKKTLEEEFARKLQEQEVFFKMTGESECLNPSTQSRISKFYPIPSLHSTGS
Chain of TGF-beta receptor type-2 (P37173 whole entry): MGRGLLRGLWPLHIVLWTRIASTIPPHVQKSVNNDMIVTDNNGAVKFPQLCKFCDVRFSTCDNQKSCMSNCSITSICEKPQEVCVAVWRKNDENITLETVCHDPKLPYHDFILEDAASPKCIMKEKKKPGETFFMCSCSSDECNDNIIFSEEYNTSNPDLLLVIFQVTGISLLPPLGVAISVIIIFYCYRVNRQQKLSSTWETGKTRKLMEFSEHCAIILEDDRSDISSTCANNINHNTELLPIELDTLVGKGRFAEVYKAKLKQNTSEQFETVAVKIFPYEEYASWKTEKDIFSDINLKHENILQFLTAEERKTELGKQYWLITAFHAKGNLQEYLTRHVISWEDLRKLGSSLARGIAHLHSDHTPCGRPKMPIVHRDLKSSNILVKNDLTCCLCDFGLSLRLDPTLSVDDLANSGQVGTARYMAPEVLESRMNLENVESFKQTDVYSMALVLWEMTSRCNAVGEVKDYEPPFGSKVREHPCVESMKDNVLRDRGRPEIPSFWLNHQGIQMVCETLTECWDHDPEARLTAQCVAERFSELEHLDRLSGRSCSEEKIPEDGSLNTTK
Chain of NADH dehydrogenase [ubiquinone] 1 alpha subcomplex subunit 13 (Q9P0J0 whole entry, one chain of several): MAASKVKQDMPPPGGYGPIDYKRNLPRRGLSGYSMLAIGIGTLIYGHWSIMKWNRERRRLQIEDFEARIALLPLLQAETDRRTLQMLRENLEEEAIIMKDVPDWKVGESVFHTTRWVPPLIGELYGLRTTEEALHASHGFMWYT
Chain of Dual specificity protein kinase CLK2 (P49760 whole entry): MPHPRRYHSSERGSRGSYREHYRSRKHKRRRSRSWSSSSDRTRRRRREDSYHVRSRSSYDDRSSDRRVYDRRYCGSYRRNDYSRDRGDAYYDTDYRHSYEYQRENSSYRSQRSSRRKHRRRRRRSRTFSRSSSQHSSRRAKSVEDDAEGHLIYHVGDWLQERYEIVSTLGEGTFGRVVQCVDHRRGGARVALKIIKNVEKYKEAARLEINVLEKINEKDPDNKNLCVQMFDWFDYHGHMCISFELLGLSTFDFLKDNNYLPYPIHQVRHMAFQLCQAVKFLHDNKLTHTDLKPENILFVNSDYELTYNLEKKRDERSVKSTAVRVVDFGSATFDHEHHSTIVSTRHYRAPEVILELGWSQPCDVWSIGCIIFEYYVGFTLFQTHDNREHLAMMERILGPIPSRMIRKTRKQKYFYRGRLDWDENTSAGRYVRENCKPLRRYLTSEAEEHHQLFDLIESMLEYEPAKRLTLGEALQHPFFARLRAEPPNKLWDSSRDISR

A word on the Kd: it is the equilibrium constant for the complex coming apart. Take `CC(=O)c1cnc2ccc(-c3cc(Cl)c(O)c(Cl)c3)nc2c1N[C@H]1CC[C@H](CN(C)C)CC1`: the Kd in test [1], in [2], in test [3], in [4], in [5] and in [6] was > 30 µM (inactive) throughout. In addition, the Kd in test [7] is > 30 µM (inactive); in [8] it was > 30 µM (inactive); in [9], 0.113 µM (active).
For `Cc1nc(NC(=O)N2CCC[C@H]2C(N)=O)sc1-c1ccnc(C(C)(C)C(F)(F)F)c1` [ALPELISIB], the Kd in [1], in test [2], in test [4], in [5], in test [6] and in [7] was > 30 µM (inactive) each time. Further, the Kd in [9] was > 30 µM (inactive).
As for `O=C(Nc1c[nH]nc1-c1nc2cc(CN3CCOCC3)ccc2[nH]1)NC1CC1` [AT-9283], the Kd was > 30 µM (inactive) in test [1]; 0.188 µM (active) in test [2]; > 30 µM (inactive) in test [4]; > 30 µM (inactive) in [5]; > 30 µM (inactive) in test [6]; > 30 µM (inactive) in test [7]. Moreover, the Kd in test [8] is > 30 µM (inactive); in [9], 0.402 µM (active).
Regarding `Cc1nc2cc(-n3ncc(C(=O)c4cc5ccccc5[nH]4)c3N)ccc2[nH]1` [FGFR INHIBITOR DEBIO 1347], the Kd in test [1], in [2], in test [3], in [4], in [10] and in test [6] was > 30 µM (inactive) each time. For the same compound, the Kd in [7], in [8] and in [9] was > 30 µM (inactive) throughout.
As for `Cc1cccc(-c2nn3c(c2-c2ccnc4ccc(C(N)=O)cc24)CCC3)n1` [GALUNISERTIB], the Kd in test [1], in test [2], in test [3], in test [4], in test [5] and in [6] was > 30 µM (inactive) in each case. In addition, the Kd in test [7], in test [8] and in test [9] was > 30 µM (inactive) in each case.
For `O=C(Nc1cc(C(F)(F)F)cc(C(F)(F)F)c1)c1cc(Cl)ccc1O` [IMD-0354], the Kd is > 30 µM (inactive) in [1]; > 30 µM (inactive) in test [2]; > 30 µM (inactive) in test [3]; 3.22 µM in [4]; > 30 µM (inactive) in test [5]; > 30 µM (inactive) in test [6]. Also, the Kd in [7], in [8] and in test [9] was > 30 µM (inactive) each time.
For `CNC(=O)c1cccc2cc(Oc3ccnc4cc(OCC5(N)CC5)c(OC)cc34)ccc12` [LUCITANIB], the Kd in test [1], in [2], in test [3], in test [10], in [5] and in test [6] was > 30 µM (inactive) throughout. Besides, the Kd in test [7], in test [8] and in [9] was > 30 µM (inactive) throughout.
Consider `CN1CCN(CCOc2cc(OC3CCOCC3)c3c(Nc4c(Cl)ccc5c4OCO5)ncnc3c2)CC1` [SARACATINIB], for which the Kd is > 30 µM (inactive) in [1]; 0.566 µM in test [2]; > 30 µM (inactive) in test [3]; > 30 µM (inactive) in test [4]; > 30 µM (inactive) in test [10]; > 30 µM (inactive) in [5]. For the same compound, the Kd in test [6], in [7] and in test [8] was > 30 µM (inactive) each time.
Turning to `CCS(=O)(=O)c1cccc(-c2cc(C(=O)NC3CCN(C)CC3)c(C)c3[nH]c4ncc(C)cc4c23)c1` [TAK-901], the Kd is 0.18 µM (active) in test [2]; > 30 µM (inactive) in test [3]; > 30 µM (inactive) in [4]; 1.03 µM (active) in test [10]; > 30 µM (inactive) in [5]; > 30 µM (inactive) in test [6]. In addition, the values for the Kd in test [7], in test [8] and in [9] were > 30 µM (inactive), > 30 µM (inactive) and 1.35 µM (active), respectively.
In the case of `COc1cc2c(Nc3ccc(Cl)c(Cl)c3F)ncnc2cc1OC[C@@H]1C[C@@H]2CN(C)C[C@@H]2C1` [TESEVATINIB], the Kd in test [2] is 0.172 µM (active); in test [3], > 30 µM (inactive); in test [4], > 30 µM (inactive); in test [10], > 30 µM (inactive); in test [5], > 30 µM (inactive); in test [6] it was > 30 µM (inactive). Further, the Kd in [7] was > 30 µM (inactive); in test [8], > 30 µM (inactive); in [9] it was 3.42 µM (active).
For the compound `Cc1cc(Nc2ncnc3ccc(NC4=NC(C)(C)CO4)cc23)ccc1Oc1ccn2ncnc2c1` [TUCATINIB], the Kd in test [2], in [3], in test [4], in test [10], in test [5] and in test [6] was > 30 µM (inactive) throughout. The Kd in [7], in test [8] and in [9] was > 30 µM (inactive) each time.
Regarding `Cn1ncc(Cl)c1-c1cc(C(=O)N[C@H](CN)Cc2ccc(F)c(F)c2)oc1Cl` [UPROSERTIB], the Kd in [1], in [2], in test [4], in [6], in test [7] and in test [9] was > 30 µM (inactive) each time.
For the compound `C[C@@H](N)c1ccc(C(=O)Nc2ccnc3[nH]ccc23)cc1` [Y-39983], the Kd in [2], in test [3], in [4], in [10], in test [5] and in test [6] was > 30 µM (inactive) in each case. For the same compound, the Kd in test [7], in [8] and in [9] was > 30 µM (inactive) each time.
